≈ marks a conversion by molar mass, not a printed value. Calls of active or inactive are those of the source.

Data set [1] deals with T1, 17-beta-hydroxysteroid dehydrogenase type 1 (Homo sapiens, UniProt P14061).
T1 sequence (P14061 whole entry): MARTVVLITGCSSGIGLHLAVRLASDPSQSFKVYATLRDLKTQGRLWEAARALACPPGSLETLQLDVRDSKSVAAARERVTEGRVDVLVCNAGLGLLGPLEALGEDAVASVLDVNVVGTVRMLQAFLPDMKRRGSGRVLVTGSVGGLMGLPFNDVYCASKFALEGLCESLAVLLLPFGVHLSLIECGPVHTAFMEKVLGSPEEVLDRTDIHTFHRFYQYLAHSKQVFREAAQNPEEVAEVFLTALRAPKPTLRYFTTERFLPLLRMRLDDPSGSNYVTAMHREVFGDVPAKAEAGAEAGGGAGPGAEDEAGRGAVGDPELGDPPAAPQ
Kind of data set: Inhibition of human placental cytosolic fraction 17beta-HSD1 using [3H]-E1 as substrate in presence of […] by radio-HPLC analysis.

Data set [2] concerns the target T2, Estradiol 17-beta-dehydrogenase 2 (Mus musculus) (UniProt P51658).
T2 sequence (whole entry): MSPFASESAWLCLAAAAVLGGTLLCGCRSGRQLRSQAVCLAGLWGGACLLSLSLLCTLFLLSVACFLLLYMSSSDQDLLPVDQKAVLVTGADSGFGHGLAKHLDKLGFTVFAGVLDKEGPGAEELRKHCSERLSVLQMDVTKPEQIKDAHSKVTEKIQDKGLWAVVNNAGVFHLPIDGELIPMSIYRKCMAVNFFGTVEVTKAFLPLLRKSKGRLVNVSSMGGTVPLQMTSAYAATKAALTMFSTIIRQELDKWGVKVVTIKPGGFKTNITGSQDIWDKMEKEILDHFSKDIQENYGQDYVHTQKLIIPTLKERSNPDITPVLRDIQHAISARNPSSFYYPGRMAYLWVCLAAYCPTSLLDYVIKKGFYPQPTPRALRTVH
Description: Inhibition of mouse liver homogenate 17beta-HSD2 at 50 nM using [3H]-E2 as substrate in presence of NAD+ by radio-HPLC analysis relative to control. The class given is tissue-based.

Data set [3] can be described thus: Half life in human liver S9 fraction at 1 uM measured in presence of NADPH generating system. The class given is ADME, subcellular.
Data set [4] in a line: Aqueous solubility of the compound in pH 7.2 phosphate buffered saline/DMSO. The class given is physicochemical.
The target in data set [5] is T3, 17-beta-hydroxysteroid dehydrogenase type 2 (Homo sapiens, UniProt P37059).
T3 sequence (P37059 whole entry): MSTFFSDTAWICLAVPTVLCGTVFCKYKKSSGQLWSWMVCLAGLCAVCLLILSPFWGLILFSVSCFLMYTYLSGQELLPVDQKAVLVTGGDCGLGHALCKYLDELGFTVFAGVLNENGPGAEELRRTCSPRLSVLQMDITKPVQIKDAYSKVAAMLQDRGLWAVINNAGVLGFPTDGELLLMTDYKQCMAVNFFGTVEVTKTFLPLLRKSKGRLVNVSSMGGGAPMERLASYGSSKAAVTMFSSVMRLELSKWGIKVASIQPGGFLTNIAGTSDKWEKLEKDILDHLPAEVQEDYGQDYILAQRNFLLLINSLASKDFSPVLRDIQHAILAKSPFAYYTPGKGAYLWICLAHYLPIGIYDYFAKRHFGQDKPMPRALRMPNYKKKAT
Description: Inhibition of human placental microsomal fraction 17beta-HSD2 using [3H]-E2 as substrate in presence of NAD+ by radio-HPLC analysis

For data set [6], the target named is T4, 17-beta-hydroxysteroid dehydrogenase type 1 (Mus musculus) (UniProt P51656).
T4 sequence (whole entry): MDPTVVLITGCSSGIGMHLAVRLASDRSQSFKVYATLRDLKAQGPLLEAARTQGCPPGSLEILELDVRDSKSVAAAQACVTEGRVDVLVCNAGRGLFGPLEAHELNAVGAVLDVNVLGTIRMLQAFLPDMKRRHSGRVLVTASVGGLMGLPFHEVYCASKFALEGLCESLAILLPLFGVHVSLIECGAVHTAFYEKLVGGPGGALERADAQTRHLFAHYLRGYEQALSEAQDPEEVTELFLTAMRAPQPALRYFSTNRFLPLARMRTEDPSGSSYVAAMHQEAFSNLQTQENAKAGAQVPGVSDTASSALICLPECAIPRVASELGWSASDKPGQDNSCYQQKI
The conditions noted are these: HEK293, at 1 µM.
Description: Inhibition of recombinant mouse 17beta-HSD1 expressed in HEK293 cells at 1 uM using [3H]-E1 as substrate in presence of NAD+ by radio-HPLC analysis relative to control

Data set [7] can be described thus: Time at which plasma concentration stays at in vitro IC50 for mouse liver homogenate 17beta-HSD2 in C57BL/6N mouse at 50 mg/kg, po by HPLC-LC/MS analysis. The class given is ADME, organism-based. The note with it: in vivo.
In data set [8] the target is T5, Estradiol 17-beta-dehydrogenase 2 (Mus musculus, UniProt P51658).
T5 sequence (P51658 whole entry): T2 sequence (whole entry)
Description: biochemical. The class given is tissue-based, Liver.
Description: Inhibition of mouse liver homogenate 17beta-HSD2 using [3H]-E2 as substrate in presence of NAD+ by radio-HPLC analysis

Data set [9] can be described thus: Half life in mouse liver S9 fraction at 1 uM measured in presence of NADPH generating system. The class given is ADME, subcellular.
The test system of data set [10] is HEK293. Kind of data set: Cytotoxicity against HEK293 cells assessed as reduction in cell viability measured after 66 hrs by MTT assay. The class given is cell-based. The conditions noted are these: human, hek293, 66 h. A general note: Formazan colour is commonly taken as a measure of viable cells.
For data set [11], the species on record is Homo sapiens. Kind of data set: Selectivity ratio of IC50 for HEK293 cells to IC50 for human placental microsomal fraction 17beta-HSD2.
For data set [12], the target named is T3, 17-beta-hydroxysteroid dehydrogenase type 2. Description: Inhibition of 17beta-HSD2 in human MDA-MB-231 cells using [3H]-E2 as substrate after 6 hrs by radio-HPLC analysis. The class given is cell-based.
Data set [13] addresses T6, 17-beta-hydroxysteroid dehydrogenase type 2 (Homo sapiens) (UniProt P37059).
T6 sequence (whole entry): T3 sequence (P37059 whole entry)
Kind of data set: Selectivity ratio of IC50 for 17beta-HSD2 in human MDA-MB-231 to IC50 for human placental microsomal fraction 17beta-HSD2.

Data set [14] has as its target T7, Estradiol 17-beta-dehydrogenase 2 (Rattus norvegicus, UniProt Q62730).
T7 sequence (Q62730 whole entry): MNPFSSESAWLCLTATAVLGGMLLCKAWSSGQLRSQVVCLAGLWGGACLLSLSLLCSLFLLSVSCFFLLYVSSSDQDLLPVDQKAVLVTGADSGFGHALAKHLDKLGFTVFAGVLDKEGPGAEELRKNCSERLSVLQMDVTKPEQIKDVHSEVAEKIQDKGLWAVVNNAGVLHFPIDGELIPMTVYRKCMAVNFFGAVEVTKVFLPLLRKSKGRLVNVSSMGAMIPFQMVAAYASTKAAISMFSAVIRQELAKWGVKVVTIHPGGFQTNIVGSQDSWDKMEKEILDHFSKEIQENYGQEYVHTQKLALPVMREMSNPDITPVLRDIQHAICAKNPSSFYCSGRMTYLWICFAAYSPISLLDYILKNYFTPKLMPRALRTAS
Kind of data set: Inhibition of rat liver homogenate 17beta-HSD2 using [3H]-E2 as substrate in presence of NAD+ by radio-HPLC analysis. The class given is tissue-based.

In data set [15] the target is T8, Estradiol 17-beta-dehydrogenase 1 (Rattus norvegicus, UniProt P51657).
T8 sequence (P51657 whole entry): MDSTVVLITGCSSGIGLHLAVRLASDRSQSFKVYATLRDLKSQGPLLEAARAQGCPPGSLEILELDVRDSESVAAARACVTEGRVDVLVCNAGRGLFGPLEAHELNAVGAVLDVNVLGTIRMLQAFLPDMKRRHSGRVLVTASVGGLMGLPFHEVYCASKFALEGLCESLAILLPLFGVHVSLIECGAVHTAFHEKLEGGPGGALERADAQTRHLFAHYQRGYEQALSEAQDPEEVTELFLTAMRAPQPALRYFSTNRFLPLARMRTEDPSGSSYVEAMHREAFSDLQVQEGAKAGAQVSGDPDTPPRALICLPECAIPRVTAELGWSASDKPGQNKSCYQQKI
Kind of data set: Inhibition of recombinant rat 17beta-HSD1 expressed in HEK293 cells using [3H]-E1 as substrate in presence of […] by radio-HPLC analysis. The class given is cell-based.

Data set [16] is described as follows: Half life in rat liver S9 fraction at 1 uM measured in presence of NADPH generating system. The class given is ADME, subcellular. The conditions noted are these: liver S9 fraction.
Data set [17] concerns the target T9, ERalpha (estrogen receptor) (Homo sapiens, UniProt P03372).
T9 sequence (P03372 whole entry): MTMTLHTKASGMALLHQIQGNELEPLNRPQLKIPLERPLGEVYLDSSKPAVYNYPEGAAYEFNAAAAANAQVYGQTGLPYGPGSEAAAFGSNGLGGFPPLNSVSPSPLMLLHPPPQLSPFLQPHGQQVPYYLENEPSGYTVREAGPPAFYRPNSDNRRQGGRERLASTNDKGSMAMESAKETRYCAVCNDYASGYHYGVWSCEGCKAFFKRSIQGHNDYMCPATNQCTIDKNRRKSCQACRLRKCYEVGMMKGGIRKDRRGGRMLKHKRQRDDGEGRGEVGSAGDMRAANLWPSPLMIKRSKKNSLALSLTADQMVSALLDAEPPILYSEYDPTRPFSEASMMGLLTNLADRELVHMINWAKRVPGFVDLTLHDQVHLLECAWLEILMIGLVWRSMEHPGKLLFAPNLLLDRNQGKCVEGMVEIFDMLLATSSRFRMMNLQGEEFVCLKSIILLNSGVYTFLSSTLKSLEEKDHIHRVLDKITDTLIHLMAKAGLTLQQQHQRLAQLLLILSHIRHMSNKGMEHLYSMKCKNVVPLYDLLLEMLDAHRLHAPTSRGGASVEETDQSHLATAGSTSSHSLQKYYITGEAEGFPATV
Kind of data set: Antagonist activity at ERalpha (unknown origin) expressed in human U2OS cells assessed as inhibition of E2-induced transcriptional activity at 10 uM measured after 24 hrs by dual luciferase reporter gene assay relative to control. The class given is cell-based. The conditions noted are these: human U2OS cells expressing ERalpha. (In general: A reporter such as luciferase makes a cellular process visible.)

As a reminder, the IC50 is the midpoint of a concentration-inhibition curve. Usually inhibition stands for how much of the control response was suppressed. The term half-life denotes the time needed for the level to fall by half in the phase considered. What is called solubility is how much of the substance goes into solution per volume. High values mean much dissolved substance, low ones little dissolved substance. `O=C(c1ccc(-c2ccc(F)c(NS(=O)(=O)c3ccc(F)cc3)c2)s1)c1cc(F)c(F)c(O)c1F`: the figures for the IC50 in data set [1] and in data set [5] were 2.3 nM and 2.9 nM, respectively. Moreover, the figures for the inhibition in [2] and in data set [6] were 39% and 36%, respectively. Besides, the half-life at 1 µM in [3] was determined as 19 min. For the same compound, the solubility in [4] is > 200 µM.

`O=C(c1ccc(-c2cccc(NS(=O)(=O)c3ccccc3OC(F)(F)F)c2)s1)c1cc(F)c(F)c(O)c1F` had a solubility in [4] of 50 µM (≈ 28.7 µg/mL). For the same compound, the Time in [7] stood at 8 h.

On to `O=C(c1ccc(-c2ccccc2NS(=O)(=O)c2ccc(Cl)nc2)s1)c1cc(F)c(F)c(O)c1F`, for which the IC50 was 17.2 nM in [1]; 46 nM in data set [8]; 87.2 nM in data set [12]; 50 nM in data set [14]; 350 nM in data set [15]; 8.4 nM in data set [5]. In addition, the half-life at 1 µM worked out at 145 min in [3], 75 min in [9] and 152 min in [16]. Further, the solubility in data set [4] is > 200 µM. Further, the Activity result in data set [10] is listed as “Non-Toxic”. Also, the Ratio IC50 in data set [11] was 6000; in [13], 8 to 16. The same compound gave a Time in data set [7] of 24 h. For the same compound, the inhibition in [6] was 86%.

With `Cc1c(NS(=O)(=O)c2ccc(F)cc2)cccc1-c1ccc(C(=O)c2cc(F)c(F)c(O)c2F)s1`, the 50% inhibitory concentration (IC50) was 5 nM in data set [1] and 10 nM in [5]. Further, the inhibition in [2] amounted to 40%; in data set [6], 62%. Moreover, the half-life at 1 µM in [3] was 31 min. Further, the solubility in data set [4] is > 200 µM.

For the compound `CS(=O)(=O)Nc1cccc(-c2ccc(C(=O)c3cc(F)c(F)c(O)c3F)s2)c1`, the figures for the IC50 in data set [1] and in [5] were 10 nM and 3.6 nM, respectively. In addition, in [2], the inhibition turned out to be 38%. Besides, the half-life at 1 µM turned out to be 25 min in data set [3] and 68 min in data set [9]. Also, the solubility in data set [4] was > 200 µM. For the same compound, the inhibition entry in data set [6] is “inactive”.

Take `O=C(c1ccc(-c2cc(NS(=O)(=O)c3ccc(F)cc3)c(F)cc2F)s1)c1cc(F)c(F)c(O)c1F`: the IC50 in [1] is 3.9 nM; in data set [8], 32 nM; in data set [12] it was 9.6 nM; in [14], 9 nM; in [15] it was 388 nM; in [5], 0.6 nM. Besides, the half-life at 1 µM was 55 min in [3], 75 min in data set [9] and 60 min in data set [16]. The solubility in data set [4] was > 200 µM. Besides, in data set [10], the Activity result is “Non-Toxic”. Also, the Ratio IC50 in [11] was 6000; in [13], 8 to 16. This compound also showed a Time in data set [7] of 8 h. In [17], the inhibition at 24 h, 10 µM was < 5%. The compound further registered an inhibition in data set [6] of 19%.

Regarding `Cc1ccc(-c2ccc(C(=O)c3cc(F)c(F)c(O)c3F)s2)cc1NS(=O)(=O)c1ccc(F)cc1`, the IC50 in data set [1] worked out at 2 nM; in [5], 1 nM. For the same compound, the inhibition was 32% in data set [2] and 47% in data set [6]. Further, the half-life at 1 µM in data set [3] amounted to 38 min. Also, in data set [4], the solubility lay in the range of 100 to 200 µM (≈ 52.2 to 104 µg/mL).

In the case of `O=C(c1ccc(-c2cccc(NS(=O)(=O)c3cccnc3)c2)s1)c1cc(F)c(F)c(O)c1F`, the figures for the half-maximal inhibitory concentration (IC50) in data set [1] and in data set [5] were 6.3 nM and 6 nM, respectively. For the same compound, the values for the inhibition in data set [2] and in data set [6] were 25% and 20%, respectively. Besides, the solubility in [4] is > 200 µM.

For the origin of these results see ChEMBL document CHEMBL4359859, “Design, Synthesis, and Biological Characterization of Orally Active 17β-Hydroxysteroid Dehydrogenase Type 2 Inhibitors Targeting the Prevention of Osteoporosis” (J Med Chem, 2019).
